Each structure is given as a SMILES string.

Assay [1] concerns adenosine receptor known as A2. The experiment in a line: Guinea-pig Aortic Constriction Test. The format is cell-based. The conditions noted are these: antagonism of adenosine attenuation of phenylephrine induced constriction, guinea-pig aortic ring. An excerpt:
(b) Guinea-pig Aortic Constriction Test
This test has been described by Collis et al. (British J. Pharmacology, 1989, 97, 1274-1278) and involves the assessment of the ability of a test compound to antagonise the attenuatory effect of adenosine on phenylephrine induced constriction of a guinea-pig aortic ring preparation, an effect mediated via the adenosine receptor known as A2.
The aortic ring preparation is obtained as follows:
Sections (3-5 mm) of guinea pig thoracic aorta (from Dunkin Hartley strain, 250-400 g males) are mounted in organ baths containing oxygenated Krebs solution (95% O2 : 5% CO2) at 37° C. [The nucleoside transport inhibitor, dipyridamole (10 μM) is present in the Krebs solution]. The isometric tension development is recorded and the tissue placed under a resting tension of 1 g and allowed to equilibrate for 1 hour. […] Adenosine is next added cumulatively (10^-7 M to 10^-3 M) and the evoked relaxation is measured. […]
Test compounds are assessed by plotting the percentage relaxation observed against the logarithm of the adenosine concentration, competitive adenosine antagonism producing a parallel shift in the standard adenosine concentration/relaxation (dose response) curve. […] The pA2 value, which is an estimate of the concentration of antagonist to give a dose ratio of 2, may also be calculated using a standard computation technique.

For assay [2], the system named is vasodilation response during twitch contraction of skeletal muscle. Briefly: Anaesthetised cat exercise hyperaemia test. It counts as in vivo. The note with it: 10 mg.kg^-1. As for the experimental part:
(f) Anaesthetised cat exercise hyperaemia test
This test involves assessment of the effect of a test compound to antagonise the vasodilation response which occurs during twitch contraction of skeletal muscle. The vasodilation is mediated partly by the release of endogenous adenosine from the contracting skeletal muscle.
Cats (2.4-3.6 kg) are anaesthetised with sodium pentobarbitone (50 mg.kg^-1 ip). The following blood vessels are catheterized: left jugular vein (for infusion of anaesthetic, at approximately […] as a 6 mg.ml^-1 solution in isotonic saline), right external jugular vein (for administration of drugs and test compounds), right common carotid artery (for measurement of systemic arterial blood pressure and pulse rate) and right brachial artery (for withdrawal of blood).
Blood flow to the left hind limb is measured with an electromagnetic flow probe around the left external iliac artery. The whole of the left hind limb is made to contract at 3 Hz for 20 minutes duration by stimulating the sciatic and femoral nerves. Active tension produced by the extensor digitorum longus and peroneous longus muscles is measured isometrically with a force transducer. Exercise is repeated twice within the same animal, in either the absence or presence of the test compound. Test compounds are assessed for their ability to reduce the vasodilation during skeletal muscle contraction.

The target of assay [3] is T1, A2 Adenosine receptor (Rattus norvegicus, UniProt P30543).
T1 construct: membrane preparations derived from the rat phaeochromocytoma cell line PC 12; host or cells: PC 12 (rat phaeochromocytoma), membranes
T1 sequence (P30543 whole entry): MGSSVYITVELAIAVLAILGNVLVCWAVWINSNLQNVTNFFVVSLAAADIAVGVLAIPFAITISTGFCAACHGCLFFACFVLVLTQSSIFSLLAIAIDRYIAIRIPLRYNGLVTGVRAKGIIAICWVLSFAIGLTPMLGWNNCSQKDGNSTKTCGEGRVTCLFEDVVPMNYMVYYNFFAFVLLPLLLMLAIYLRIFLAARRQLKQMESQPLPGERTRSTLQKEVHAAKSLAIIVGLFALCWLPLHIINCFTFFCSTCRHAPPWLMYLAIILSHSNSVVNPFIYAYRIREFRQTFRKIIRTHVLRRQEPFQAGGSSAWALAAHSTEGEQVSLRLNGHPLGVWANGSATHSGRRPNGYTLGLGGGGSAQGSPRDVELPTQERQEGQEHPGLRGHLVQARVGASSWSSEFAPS
The experiment in a line: A2 Adenosine receptor affinity test ([3H]-NECA displacement, PC12 membranes). The note with it: displacement of [3H]-NECA from rat PC12 cell membranes. The format is binding. How it is done: The membrane preparation is obtained as follows: Frozen pellets of PC12 cells are washed twice with ice cold, buffered, physiological saline and the cells recovered by centrifugation (1500 G) at 3° C. The separated cells are then suspended in hypotonic solution (distilled water), allowed to stand on ice for 30 minutes and are then carefully homogenized using a standard high-speed homogeniser with periodic ice-cooling to obtain a fine suspension. […] The mixture is then incubated at 37° C. After 20 minutes, the reaction is terminated by dilution with ice-cold buffer and transfer onto ice. The material obtained containing the cell membranes is recovered by centrifugation and washed by resuspension in buffer and recentrifugation. The pellet produced is then resuspended in ice-cold buffer using a hand-driven homogenizer. The resultant membrane suspension is frozen and stored under liquid nitrogen until required.
After incubation, the samples are rapidly filtered over glass-fibre mats and the filter mats are washed to remove non-receptor-bound radioligand. Receptor-bound radioligand entrapped on the filter mats is then determined by liquid scintillation counting. […] The specific binding (defined as the difference between the total binding and the non-specific binding) in the presence of the particular test compound is determined and compared with the control value.
In general terms: In a radioligand displacement assay an active substance lowers the binding of a labelled ligand.

Assay [4] addresses T2, adenosine receptor known as A1 (Cavia porcellus, UniProt P47745).
T2 construct: Atrial pairs are obtained from guinea-pigs; from tissue; host or cells: guinea-pig atrial pairs (Dunkin Hartley)
T2 sequence (P47745 1-326): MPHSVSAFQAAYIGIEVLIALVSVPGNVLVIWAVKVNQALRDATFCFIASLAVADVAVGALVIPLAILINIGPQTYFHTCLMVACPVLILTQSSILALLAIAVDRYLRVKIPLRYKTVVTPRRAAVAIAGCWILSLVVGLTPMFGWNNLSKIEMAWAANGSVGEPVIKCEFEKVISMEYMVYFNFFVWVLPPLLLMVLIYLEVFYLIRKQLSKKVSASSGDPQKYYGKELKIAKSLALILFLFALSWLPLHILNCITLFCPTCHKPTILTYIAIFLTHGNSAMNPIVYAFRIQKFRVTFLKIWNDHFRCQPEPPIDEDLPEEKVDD
The experiment in a line: Guinea-pig Atrial Bradycardic Test. It counts as cell-based. The note with it: antagonism of bradycardic effect of 2-chloroadenosine, beating guinea-pig atrial preparation; read-out: pA2 (converted). How it is done:
(c) Guinea-pig Atrial Bradycardic Test
The spontaneously beating atria are then placed under a resting tension of 1 g and allowed to equilibrate for 50 minutes with continuous overflow. Overflow is then stopped and adenosine deaminase (1 Unit/ml) added to prevent the accumulation of endogenously produced adenosine. […] After washout during 30 minutes, adenosine deaminase is readministered to the bath which is allowed to equilibrate for 15 minutes. A 10^-5 M solution of the test compound in DMSO is then added to the bath which is left to incubate for 30 minutes. Any effect on the beating rate due to the test compound is noted before the dose response curve to 2-chloroadenosine is repeated. Compounds which are adenosine antagonists attenuate the 2-chloroadenosine response.
Test compounds are assessed by comparing dose response curves to 2-chloroadenosine alone with those obtained in the presence of the compound. Competitive adenosine antagonists produce a parallel shift in the 2-chloroadenosine dose response curve. […] The pA2 is then obtained in an analogous manner to that referred to in (b) above.

`Cn1c(=O)c2[nH]cnc2n(C)c1=O` [1,3-dimethylxanthine]: the pA2 result in assay [1] is on record as “about 5”. For the same compound, in assay [2], the “inhibition of vasodilation during skeletal muscle contraction” value is “significant inhibition”.
As a reminder, the IC50 is the point on the concentration scale where inhibition reaches its midpoint. Low values mean greater potency in that assay, high ones weaker potency in that assay. `Nc1nc(-c2ccccc2)nc2nc(-c3ccco3)nn12` [Example 1, 7-amino-2-(2-furyl)-5-phenyl-[1,2,4]-triazolo[1,5-a][1,3,5]triazine]: the IC50 in assay [3] was approximately 25.1 nM. In addition, the Kb in assay [4] is 39.8 nM.

The values are drawn from patent publication US5290776A, “Azole derivatives” (Imperial Chemical Industries, PLC, priority 1991, dated 1994).
